From PubChem BioAssay (NCI)
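Where inhibition never reached the appropriate level, the endpoint shown equals the highest concentration tested. Otherwise, values were interpolated linearly from a five-concentration, 48-hour dose response in 96-well plates. Definition used: TGI = concentration required for complete inhibition of growth.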

Experiments:
Assay in all cases: growth of human tumour cells (NCI), 48 h
[1] = tested on: HOP-62 NSCLC
[2] = tested on: HCC-2998 colon
[3] = tested on: OVCAR-4 ovarian
[4] = tested on: UO-31 renal
[5] = tested on: SK-MEL-5 melanoma
[6] = tested on: SF-268 CNS
[7] = tested on: TK-10 renal
[8] = tested on: KM12 colon
[9] = tested on: A549 NSCLC
[10] = tested on: NCI-H23 lung
[11] = tested on: SF-295 CNS
[12] = tested on: MOLT-4 leukemia
[13] = tested on: IGROV1 ovarian
[14] = tested on: NCI-H226 lung
[15] = tested on: HT29 colon
[16] = tested on: UACC-62 melanoma
[17] = tested on: A498 renal
[18] = tested on: SNB-75 CNS
[19] = tested on: ACHN renal
[20] = tested on: RPMI-8226 leukemia
[21] = tested on: UACC-257 melanoma
[22] = tested on: U251 CNS
[23] = tested on: HS 578T breast
[24] = tested on: SW-620 colon
[25] = tested on: HCT-15 colon
[26] = tested on: OVCAR-3 ovarian
[27] = tested on: HOP-92 NSCLC
[28] = tested on: 786-0 renal
[29] = tested on: CAKI-1 renal
[30] = tested on: PC-3 prostate
[31] = tested on: MCF7 breast
[32] = tested on: MDA-MB-435
[33] = tested on: SK-MEL-28 melanoma
[34] = tested on: BT-549 breast
[35] = tested on: OVCAR-8 ovarian
[36] = tested on: DU-145 prostate
[37] = tested on: MALME-3M melanoma
[38] = tested on: RXF 393 renal
[39] = tested on: SR leukemia
[40] = tested on: NCI-H522 lung
[41] = tested on: HCT-116 colon
[42] = tested on: OVCAR-5 ovarian
[43] = tested on: SK-OV-3 ovarian
[44] = tested on: NCI/ADR-RES ovarian
[45] = tested on: MDA-MB-231 breast
[46] = tested on: K-562 leukemia
[47] = tested on: COLO 205 colon
[48] = tested on: SF-539 CNS
[49] = tested on: NCI-H460 lung
[50] = tested on: M14 melanoma
[51] = tested on: SN12C renal
[52] = tested on: MDA-N
[53] = tested on: T-47D breast
[54] = tested on: CCRF-CEM leukemia
[55] = tested on: SK-MEL-2 melanoma

Compound: O=C1CC(=O)NC(=NN2C(=O)/C(=C/c3ccc(Cl)cc3)N=C2c2ccccc2)N1
- TGI [1]: 30.2 µM
- TGI [2]: 24.2 µM
- TGI [3]: 22.5 µM
- TGI [4]: 31.7 µM
- TGI [5]: 32 µM
- TGI [6]: 34.2 µM
- TGI [7]: 43.2 µM
- TGI [8]: 27.6 µM
- TGI [9]: 30 µM
- TGI [10]: 31.5 µM
- TGI [11]: 33 µM
- TGI [12]: 22.7 µM
- TGI [13]: 27.4 µM
- TGI [14]: 31.5 µM
- TGI [15]: 31.5 µM
- TGI [16]: 25.6 µM
- TGI [17]: 31.7 µM
- TGI [18]: 60.2 µM
- TGI [19]: 52.4 µM
- TGI [20]: 58.2 µM
- TGI [21]: 42 µM
- TGI [22]: 33 µM
- TGI [23]: 30.6 µM
- TGI [24]: 31.9 µM
- TGI [25]: 30.8 µM
- TGI [26]: 32.6 µM
- TGI [27]: 26.1 µM
- TGI [28]: 37.5 µM
- TGI [29]: > 100 µM
- TGI [30]: 28.2 µM
- TGI [31]: 53.7 µM
- TGI [32]: 29.1 µM
- TGI [33]: 33.6 µM
- TGI [34]: 30.1 µM
- TGI [35]: 30.5 µM
- TGI [36]: > 100 µM
- TGI [37]: 33.4 µM
- TGI [38]: 30.1 µM
- TGI [39]: 21.3 µM
- TGI [40]: 23.5 µM
- TGI [41]: 30.7 µM
- TGI [42]: 30.2 µM
- TGI [43]: 51.8 µM
- TGI [44]: 31.8 µM
- TGI [45]: 35.6 µM
- TGI [46]: 28 µM
- TGI [47]: 31.5 µM
- TGI [48]: 32.4 µM
- TGI [49]: 22.9 µM
- TGI [50]: 29.3 µM
- TGI [51]: 32.3 µM
- TGI [52]: 30.2 µM
- TGI [53]: > 100 µM
- TGI [54]: 24.8 µM
- TGI [55]: 31.1 µM
